Laboratory results published in patent publication US9012489B2, “Phenyl-3-aza-bicyclo[3.1.0]hex-3-yl-methanones and the use thereof as medicament” (Boehringer Ingelheim International GmbH, priority 2011, dated 2015).

Target: T1, GlyT1 transporter (Homo sapiens, UniProt P48067)
T1 construct: endogenously expressing the GlyT1 transporter; host or cells: SK-N-MC human neuroblastoma cells
T1 sequence (P48067 1-706): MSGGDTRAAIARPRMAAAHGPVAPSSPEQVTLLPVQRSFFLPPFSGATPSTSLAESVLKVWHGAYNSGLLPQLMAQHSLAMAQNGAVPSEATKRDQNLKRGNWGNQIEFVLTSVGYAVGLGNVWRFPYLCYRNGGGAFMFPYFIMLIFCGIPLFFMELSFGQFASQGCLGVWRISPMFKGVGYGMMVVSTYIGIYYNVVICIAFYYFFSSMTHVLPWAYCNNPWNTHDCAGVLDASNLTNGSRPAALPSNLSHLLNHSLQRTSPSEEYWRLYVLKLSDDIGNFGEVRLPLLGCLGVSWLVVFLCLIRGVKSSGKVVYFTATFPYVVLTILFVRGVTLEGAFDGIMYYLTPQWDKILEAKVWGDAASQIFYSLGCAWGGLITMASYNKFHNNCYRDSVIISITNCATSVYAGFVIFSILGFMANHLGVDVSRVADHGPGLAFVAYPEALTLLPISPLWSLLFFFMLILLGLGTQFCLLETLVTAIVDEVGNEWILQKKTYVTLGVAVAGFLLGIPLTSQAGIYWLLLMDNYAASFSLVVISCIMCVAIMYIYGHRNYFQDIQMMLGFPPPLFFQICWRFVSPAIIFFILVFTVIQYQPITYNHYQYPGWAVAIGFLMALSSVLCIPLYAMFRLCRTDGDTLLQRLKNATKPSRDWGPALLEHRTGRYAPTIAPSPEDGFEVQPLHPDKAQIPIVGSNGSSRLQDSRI
Test: GlyT1 assay: 3H-glycine uptake into SK-N-MC cells (Cytostar-T format)
Type: cell-based
Settings: glycine uptake in human SK-N-MC cells endogenously expressing GlyT1; 500 nM glycine, 1% DMSO, signal recorded over 60 min
Summary of the method: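 Endogenous GlyT1 in human SK-N-MC cells, confluent after 16-18 h, in HBSS with 5 mM alanine. Compounds preincubated about 5-10 min, then 500 nM glycine (half ³H) added, 1% DMSO. Scintillation-proximity uptake recorded kinetically over 60 min; IC50 from linear-range slopes over 8 concentrations, nonspecific uptake defined with 10 μM RG-1678.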

IC50 [nM]	Structure (SMILES)
1440	C[C@H](Oc1ccc(S(C)(=O)=O)cc1C(=O)N1CC2CC2(c2csc(C(F)(F)F)n2)C1)C(F)(F)F (single isomer, unassigned) [Example 28, [5-Methanesulfonyl-2-(2,2,2-trifluoro-1-methyl-ethoxy)-phenyl]-[1-(2-trifluoromethyl-thiazol-4-yl)-3-aza-bicyclo[3.1.0]hex-3-yl]-methanone]
5	C[C@@H](Oc1ccc(S(C)(=O)=O)cc1C(=O)N1CC2CC2(c2csc(C(F)(F)F)n2)C1)C(F)(F)F (single isomer, unassigned) [Example 30, [5-Methanesulfonyl-2-(2,2,2-trifluoro-1-methyl-ethoxy)-phenyl]-[1-(2-trifluoromethyl-thiazol-4-yl)-3-aza-bicyclo[3.1.0]hex-3-yl]-methanone]
1010	C[C@@H](Oc1ccc(S(C)(=O)=O)cc1C(=O)N1CC2CC2(c2csc(C(F)(F)F)n2)C1)C(F)(F)F (single isomer, unassigned) [Example 31, [5-Methanesulfonyl-2-(2,2,2-trifluoro-1-methyl-ethoxy)-phenyl]-[1-(2-trifluoromethyl-thiazol-4-yl)-3-aza-bicyclo[3.1.0]hex-3-yl]-methanone]
6	Cc1nc(C23CC2CN(C(=O)c2cc(S(C)(=O)=O)ccc2O[C@H](C)C(F)(F)F)C3)no1 (single isomer, unassigned) [Example 42, [5-Methanesulfonyl-2-(2,2,2-trifluoro-1-methyl-ethoxy)-phenyl]-[1-(5-methyl-[1,2,4]oxadiazol-3-yl)-3-aza-bicyclo[3.1.0]hex-3-yl]-methanone]
251	Cc1nc(C23CC2CN(C(=O)c2cc(S(C)(=O)=O)ccc2O[C@H](C)C(F)(F)F)C3)no1 (single isomer, unassigned) [Example 43, [5-Methanesulfonyl-2-(2,2,2-trifluoro-1-methyl-ethoxy)-phenyl]-[1-(5-methyl-[1,2,4]oxadiazol-3-yl)-3-aza-bicyclo[3.1.0]hex-3-yl]-methanone]
397	C[C@@H](Oc1ccc(S(C)(=O)=O)cc1C(=O)N1CC2CC2(c2noc(C3CC3)n2)C1)C(F)(F)F (single isomer, unassigned) [Example 44, [1-(5-Cyclopropyl-[1,2,4]oxadiazol-3-yl)-3-aza-bicyclo[3.1.0]hex-3-yl]-[5-methanesulfonyl-2-(2,2,2-trifluoro-1-methyl-ethoxy)-phenyl]-methanone]
2	C[C@@H](Oc1ccc(S(C)(=O)=O)cc1C(=O)N1CC2CC2(c2noc(C3CC3)n2)C1)C(F)(F)F (single isomer, unassigned) [Example 45, [1-(5-Cyclopropyl-[1,2,4]oxadiazol-3-yl)-3-aza-bicyclo[3.1.0]hex-3-yl]-[5-methanesulfonyl-2-(2,2,2-trifluoro-1-methyl-ethoxy)-phenyl]-methanone]
7	C[C@H](Oc1ccc(S(C)(=O)=O)cc1C(=O)N1CC2CC2(c2cc(C(F)(F)F)on2)C1)C(F)(F)F (single isomer, unassigned) [Example 47, [5-Methanesulfonyl-2-(2,2,2-trifluoro-1-methyl-ethoxy)-phenyl]-[1-(5-trifluoromethyl-isoxazol-3-yl)-3-aza-bicyclo[3.1.0]hex-3-yl]-methanone]
886	C[C@H](Oc1ccc(S(C)(=O)=O)cc1C(=O)N1CC2CC2(c2cc(C(F)(F)F)on2)C1)C(F)(F)F (single isomer, unassigned) [Example 48, [5-Methanesulfonyl-2-(2,2,2-trifluoro-1-methyl-ethoxy)-phenyl]-[1-(5-trifluoromethyl-isoxazol-3-yl)-3-aza-bicyclo[3.1.0]hex-3-yl]-methanone]
6	C[C@@H](Oc1ccc(S(C)(=O)=O)cc1C(=O)N1CC2CC2(c2cc(C(F)(F)F)on2)C1)C(F)(F)F (single isomer, unassigned) [Example 50, [5-Methanesulfonyl-2-(2,2,2-trifluoro-1-methyl-ethoxy)-phenyl]-[1-(5-trifluoromethyl-isoxazol-3-yl)-3-aza-bicyclo[3.1.0]hex-3-yl]-methanone]
461	C[C@@H](Oc1ccc(S(C)(=O)=O)cc1C(=O)N1CC2CC2(c2cc(C(F)(F)F)on2)C1)C(F)(F)F (single isomer, unassigned) [Example 51, [5-Methanesulfonyl-2-(2,2,2-trifluoro-1-methyl-ethoxy)-phenyl]-[1-(5-trifluoromethyl-isoxazol-3-yl)-3-aza-bicyclo[3.1.0]hex-3-yl]-methanone]
22	C[C@H](Oc1ccc(S(C)(=O)=O)cc1C(=O)N1CC2CC2(c2cccc(C(F)(F)F)n2)C1)C(F)(F)F (single isomer, unassigned) [Example 55, [5-Methanesulfonyl-2-(2,2,2-trifluoro-1-methyl-ethoxy)-phenyl]-[1-(6-trifluoromethyl-pyridin-2-yl)-3-aza-bicyclo[3.1.0]hex-3-yl]-methanone]
233	C[C@H](Oc1ccc(S(C)(=O)=O)cc1C(=O)N1CC2CC2(c2cccc(C(F)(F)F)n2)C1)C(F)(F)F (single isomer, unassigned) [Example 56, [5-Methanesulfonyl-2-(2,2,2-trifluoro-1-methyl-ethoxy)-phenyl]-[1-(6-trifluoromethyl-pyridin-2-yl)-3-aza-bicyclo[3.1.0]hex-3-yl]-methanone]
8	C[C@H](Oc1ccc(S(C)(=O)=O)cc1C(=O)N1CC2CC2(c2noc(C3CC(F)(F)C3)n2)C1)C(F)(F)F (single isomer, unassigned) [Example 59]
372	C[C@H](Oc1ccc(S(C)(=O)=O)cc1C(=O)N1CC2CC2(c2noc(C3CC(F)(F)C3)n2)C1)C(F)(F)F (single isomer, unassigned) [Example 60]
4	C[C@H](Oc1ccc(S(C)(=O)=O)cc1C(=O)N1CC2CC2(c2noc(C3(C(F)(F)F)CC3)n2)C1)C(F)(F)F (single isomer, unassigned) [Example 66, [5-Methanesulfonyl-2-(2,2,2-trifluoro-1-methyl-ethoxy)-phenyl]-{1-[5-(1-trifluoromethyl-cyclopropyl)-[1,2,4]oxadiazol-3-yl]-3-aza-bicyclo[3.1.0]hex-3-yl}-methanone]
100	C[C@H](Oc1ccc(S(C)(=O)=O)cc1C(=O)N1CC2CC2(c2noc(C3(C(F)(F)F)CC3)n2)C1)C(F)(F)F (single isomer, unassigned) [Example 67, [5-Methanesulfonyl-2-(2,2,2-trifluoro-1-methyl-ethoxy)-phenyl]-{1-[5-(1-trifluoromethyl-cyclopropyl)-[1,2,4]oxadiazol-3-yl]-3-aza-bicyclo[3.1.0]hex-3-yl}-methanone]
3	C[C@@H](Oc1ccc(S(C)(=O)=O)cc1C(=O)N1CC2CC2(c2noc(C3(C(F)(F)F)CC3)n2)C1)C(F)(F)F (single isomer, unassigned) [Example 69, [5-Methanesulfonyl-2-(2,2,2-trifluoro-1-methyl-ethoxy)-phenyl]-{1-[5-(1-trifluoromethyl-cyclopropyl)-[1,2,4]oxadiazol-3-yl]-3-aza-bicyclo[3.1.0]hex-3-yl}-methanone]
